Measurements taken from patent publication US20120196854A1, “PHARMACEUTICAL COMPOSITION COMPRISING AROMATIC HETEROCYCLIC COMPOUND” (Kyowa Hakko Kirin Co., Ltd., priority 2009, published 2012).

Test system: mouse model of asthma
Assay: Airway hyperresponsiveness and eosinophil infiltration in the airway in a mouse model of asthma
Type: in vivo
Details: 3 mg/kg orally once daily during antigen exposure, OVA-sensitized BALB/c mice
Protocol: The mouse model of asthma was prepared as follows. For experimental use, 6-week-old male BALB/c mice were purchased from Charles River Japan (Atsugi, Kanagawa). Equal amounts of a 0.5 mg/mL solution of ovalbumin in physiological saline and a 10 mg/mL suspension of aluminum hydroxide in physiological saline were mixed to give a sensitizing fluid. With well mixing of the sensitization fluid, 0.2 mL of the fluid was intraperitoneally administered to each mouse for sensitization. About 1 week after the initial sensitization, the same procedure was performed for additional sensitization. […]
The expression of airway hyperresponsiveness (increase of airway reactivity) was evaluated by measuring, under anesthesia, airway reactivity to methacholine (MCh: acetyl-β-methylcholine chloride, Cat. No. A-2251, Sigma-Aldrich) using a respiratory function analyzer [BioSystem XA; version 2.0.2.21 for Windows (registered trademark), preamplifier: MAX2215, body plethysmography box: PLY3011, pressure transducer: Validyne DP45-28, flaw transducer: Validyne DP45-14, Buxco Electronics, Troy, N.Y., USA]. […] As an indicator of airway reactivity, respiratory resistance (RL) values recorded every 5 seconds by the respiratory function analyzer were used. After fixing a mouse to the device and confirming the RL stability, the value after intravenous administration of a physiological saline solution was recorded first. […]

O=C(O)c1cc(-c2ccco2)nc2ccc3nn(-c4ccccc4)nc3c12 [Compound 133, 7-(furan-2-yl)-2-phenyl-2H-[1,2,3]triazolo[4,5-f]quinoline-9-carboxylic acid]
inhibition of the expression of airway hyperresponsiveness: 98% | inhibition of eosinophil infiltration in the airway (BAL fluid): 55%
